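These data come from cells grown in 96-well plates and exposed to compound for 48 hours at five concentrations. TGI: concentration producing complete growth inhibition.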
Key:
Assay in all cases: NCI anticancer screen, dose series, 48 h
KM12 colon = test system: KM12 colon
HOP-62 NSCLC = test system: HOP-62 NSCLC
OVCAR-4 ovarian = test system: OVCAR-4 ovarian
RXF 393 renal = test system: RXF 393 renal
IGROV1 ovarian = test system: IGROV1 ovarian
HCC-2998 colon = test system: HCC-2998 colon
MOLT-4 leukemia = test system: MOLT-4 leukemia
HL-60(TB) leukemia = test system: HL-60(TB) leukemia
M14 melanoma = test system: M14 melanoma
SNB-75 CNS = test system: SNB-75 CNS
NCI-H460 lung = test system: NCI-H460 lung
SK-MEL-28 melanoma = test system: SK-MEL-28 melanoma
RPMI-8226 leukemia = test system: RPMI-8226 leukemia
SK-MEL-5 melanoma = test system: SK-MEL-5 melanoma
A549 NSCLC = test system: A549 NSCLC
LOX IMVI melanoma = test system: LOX IMVI melanoma
CCRF-CEM leukemia = test system: CCRF-CEM leukemia
COLO 205 colon = test system: COLO 205 colon
UACC-62 melanoma = test system: UACC-62 melanoma
HCT-15 colon = test system: HCT-15 colon

Row | Compound | TGI (KM12 colon) [µM] | TGI (HOP-62 NSCLC) [µM] | TGI (OVCAR-4 ovarian) [µM] | TGI (RXF 393 renal) [µM] | TGI (IGROV1 ovarian) [µM] | TGI (HCC-2998 colon) [µM] | TGI (MOLT-4 leukemia) [µM] | TGI (HL-60(TB) leukemia) [µM] | TGI (M14 melanoma) [µM] | TGI (SNB-75 CNS) [µM] | TGI (NCI-H460 lung) [µM] | TGI (SK-MEL-28 melanoma) [µM] | TGI (RPMI-8226 leukemia) [µM] | TGI (SK-MEL-5 melanoma) [µM] | TGI (A549 NSCLC) [µM] | TGI (LOX IMVI melanoma) [µM] | TGI (CCRF-CEM leukemia) [µM] | TGI (COLO 205 colon) [µM] | TGI (UACC-62 melanoma) [µM] | TGI (HCT-15 colon) [µM]
1 | CC(C)(C)N1C(C(=O)c2ccccc2)C1c1ccccc1 (stereo not given) | > 100 | > 100 | > 100 | > 100 | > 100 | > 100 | > 100 | > 100 | > 100 | > 100 | > 100 | > 100 | > 100 | > 100 | > 100 | > 100 | > 100 | > 100 | > 100 | > 100
2 | C=CC[N+]12CN3CN(CN(C3)C1)C2 | 66.8 | > 100 | 52.9 | 38 | 66.4 | 55.8 | 57.5 | > 100 | 82.3 | 48.1 | 54.7 | 55.5 | 39 | > 100 | > 100 | 83 | 30.3 | 65.9 | 80.2 | 50.9
3 | COc1ccc(C[C@H](N)C(=O)NC2C(CO)OC(n3cnc4c(N(C)C)ncnc43)C2O)cc1 (stereo not given in full) | 1.32 | 2.07 | 2.1 | 0.73 | 2.66 | 1.01 | 0.412 | 0.442 | 1.77 | 0.744 | 1.15 | 0.481 | 1.3 | 0.847 | 2.55 | 0.288 | 0.845 | 0.302 | 0.411 | 11.9
